Experimental data taken from US20050042318A1, “Extracts from hop, methods for producing the same and their use” (priority 2001, published 2005).

Assays:
[1] = target: T1, human oestrogenic receptor alpha (ER-α) (Homo sapiens, UniProt P03372); experiment: competitive receptor binding assay, displacement of radioactively labelled oestradiol, ER-α; conditions: for relative potency [formula] (ratio ER-α to ER-β): head is a formula, values fit relative potency ER-α / ER-β
T1 sequence (P03372 1-595): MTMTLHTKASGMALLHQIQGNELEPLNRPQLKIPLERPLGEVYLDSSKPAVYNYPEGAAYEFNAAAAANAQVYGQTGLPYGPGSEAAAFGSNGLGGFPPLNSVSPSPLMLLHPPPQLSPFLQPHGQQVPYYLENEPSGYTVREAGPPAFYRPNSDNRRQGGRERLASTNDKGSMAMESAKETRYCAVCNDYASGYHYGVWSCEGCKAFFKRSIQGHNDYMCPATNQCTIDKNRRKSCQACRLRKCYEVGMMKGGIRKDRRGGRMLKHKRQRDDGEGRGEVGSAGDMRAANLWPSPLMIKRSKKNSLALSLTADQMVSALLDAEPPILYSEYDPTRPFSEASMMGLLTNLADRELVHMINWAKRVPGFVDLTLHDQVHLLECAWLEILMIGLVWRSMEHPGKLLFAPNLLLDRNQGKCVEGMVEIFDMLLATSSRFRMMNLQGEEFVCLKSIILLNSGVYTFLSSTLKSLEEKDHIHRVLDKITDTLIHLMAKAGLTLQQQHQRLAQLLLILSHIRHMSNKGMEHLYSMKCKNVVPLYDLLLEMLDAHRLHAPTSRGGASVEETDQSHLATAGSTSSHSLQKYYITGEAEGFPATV
Experimental: Thereby, a radioactively labelled oestradiol was initially bonded to the human oestrogen receptor and then treated with the test substance to be examined. A portion of the labelled oestradiol which corresponds to the oestrogenic potency of the sample is thus displaced. Excessive oestradiol is washed out after bonding of the complex to hydroxylapatite. The oestrogenic receptors ER-α and ER-β were commercially available as recombinant human receptors. The test preparations consisted of 1000 μl TEDG buffer (10 mM tris, 1,5 mM EDTA, 10% glycerol, pH 7.5), 5 μl receptor (200 nM), 10 μl 3H-oestradiol and 10 μl ethanol (control value), 10 μl diethylstiloestrol (100 mM, positive control) or 10 μl extract or ingredient of the extract, respectively. The preparations were carefully mixed and incubated for about 16 hours at room temperature in the dark. After incubation 250 μl hydroxylapatite (HAP) were added to absorb the proteins. During a period of incubation of 15 minutes the preparations were manually mixed with a time-lag of 5 minutes, respectively. The precipitate is separated by centrifugation at 10,000 rpm for a few seconds and the supernatant liquid is separated by pipetting. The pellet is washed three times with 1000 μl TEDG buffer, respectively, 1000 μl ethanol are added for the measurement, the mixture is slurried and transferred to a scintillation vial. After adding 9 ml scintillator liquid (Ready Safe, Beckmann) a measurement over the complete ^3H window is carried out using a Beckmann Beta-Counter.
The characterisation of the bonding capacities of the test substances results from the determination of the ED50 values taken from the dosis-effect-plots of the displacement of oestradiol.

[2] = target: T2, human oestrogenic receptor (Homo sapiens, UniProt P03372); conditions: Milligan et al.; cited from earlier work
T2 construct: host or cells: yeast cells
T2 sequence (P03372 1-595): T1 sequence (P03372 1-595)

[3] = test system: Ishikawa-Var-I-cells; conditions: cited from earlier work
[4] = test system: ovariectomised rats; conditions: Miyamoto et al. 1998; cited from earlier work
[5] = test system: colon cancer cell lines HAT-29; conditions: Miranda et al. 1999; cited from earlier work
[6] = test system: ovarian cancer cell lines A-2780; conditions: Miranda et al. 1999; cited from earlier work
[7] = test system: human breast cancer cells MCF-7; conditions: Miranda et al. 1999; cited from earlier work
[8] = test system: osteolysis; conditions: EP 0 679 393 B1; cited from earlier work

SMILES | relative potency [formula] (ratio ER-α to ER-β) [1] | oestrogenic activity, human oestrogenic receptor in yeast [2] | antiproliferative activity [5] | interaction with ER-α, in words [1] | antiproliferative activity [6] | antiproliferative activity [7] | also measured
CC(C)=CCc1c(O)cc2c(c1O)C(=O)C[C@@H](c1ccc(O)cc1)O2 | 0.37 | weaker oestrogenic properties | – | – | – | – | –
CC(C)=CCc1c(O)cc(O)c2c1O[C@H](c1ccc(O)cc1)CC2=O | 2.72 | most powerful oestrogenic activity | – | – | – | – | oestrogenic activity in vitro, stimulating alkaline phosphatase ([3]; Ishikawa-Var-I-cells, Milligan et al. 1999): significantly more active than the phytooestrogenes known so far; osseous density [4]: normalises; weight of the uterus [4]: normalises
CC(C)=CCc1c(O)c(CC=C(C)C)c2c(c1O)C(=O)C[C@@H](c1ccc(O)cc1)O2 [6,8-diprenylnaringenine] | – | weaker oestrogenic properties | – | – | – | – | –
CC(C)=CCC/C(C)=C/Cc1c(O)cc(O)c2c1O[C@H](c1ccc(O)cc1)CC2=O [8-geranylnaringenine] | – | weaker oestrogenic properties | – | – | – | – | –
COc1cc(O)c(CC=C(C)C)c2c1C(=O)CC(c1ccc(O)cc1)O2 (stereo not shown) [Isoxanthohumol, isoxanthohumol] | 0.54 | – | strong antiproliferative activity | comparable activity | strong antiproliferative activity | strong antiproliferative activity | –
COc1cc(O)c(CC=C(C)C)c(O)c1C(=O)/C=C/c1ccc(O)cc1 [Xanthohumol] | 0.78 | could not be detected | strong antiproliferative activity | comparable activity | strong antiproliferative activity | strong antiproliferative activity | oestrogenic activity in human endometrial carcinoma cell line Ishikawa ([3]; Milligan et al.): could not be detected; effect on osteolysis [8]: inhibiting effect
